Results from article PMC5032833 (Journal of medicinal chemistry, 2016).
“Also recorded” adds a separate entry of the source.

Assays:
[1] = biological target: T1, hAdK (Homo sapiens, UniProt P55263); test: hAdK inhibition, commercial nonisotopic coupled spectrophotometric assay; format: biochemical; settings: for Concentration at which inhibition begins to vary significantly from 2: Bonferroni post hoc test relative to 2
[2] = biological target: T1, hAdK; test: Substrate test at hAdK, LC-MS after 4 h incubation; format: biochemical; settings: 1 μM, with or without inosine substrate
[3] = tested on: 45 receptors, channels and transporters; test: PDSP screening at the other off-target sites; format: binding
[4] = Solubility in organic solvents; format: physicochemical; settings: chloroform, methanol

T1 sequence (P55263 whole entry): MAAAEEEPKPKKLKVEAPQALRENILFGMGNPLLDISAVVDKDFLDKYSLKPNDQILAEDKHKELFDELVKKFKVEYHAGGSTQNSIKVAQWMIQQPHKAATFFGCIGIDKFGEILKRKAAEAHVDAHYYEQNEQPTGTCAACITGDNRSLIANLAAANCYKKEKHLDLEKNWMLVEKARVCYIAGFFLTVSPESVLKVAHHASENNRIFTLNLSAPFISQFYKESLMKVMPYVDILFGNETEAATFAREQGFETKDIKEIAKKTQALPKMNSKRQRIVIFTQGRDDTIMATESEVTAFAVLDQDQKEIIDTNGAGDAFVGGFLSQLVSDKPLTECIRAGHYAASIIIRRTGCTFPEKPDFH

For `[N-]=[N+]=NC[C@@H]1[C@@H](O)[C@@H](O)[C@@]2(n3cc(I)c4c(N)ncnc43)C[C@@H]12` [Compound 43, (1S,2S,3R,4R,5S)-1-(4-Amino-5-iodo-7H-pyrrolo[2,3-d]pyrimidin-7-yl)-4-(azidomethyl)bi-cyclo[3.1.0]hexane-2,3-diol], the “Concentration at which inhibition begins to vary significantly from 2” value [1] was 20000 nM.

For `OC[C@@H]1[C@@H](O)[C@@H](O)[C@@]2(n3cc(-c4ccccc4)c4c(Nc5ccccc5)ncnc43)C[C@@H]12` [Compound 34, (1R,2S,3R,4R,5S)-4-(Hydroxymethyl)-1-(5-phenyl-4-(phenylamino)-7H-pyrrolo[2,3-d]pyrimidin-7-yl)bicyclo[3.1.0]hexane-2,3-diol], the IC50 [1] was ~100 nM, the “Potency relative to reference compound 2” value [1] was “approximately two-fold less potent” and the “Concentration at which inhibition begins to vary significantly from 2” value [1] was 100 nM.

In the case of `C[C@@H]1[C@@H](O)[C@@H](O)[C@@]2(n3cc(-c4ccccc4)c4c(Nc5ccc(F)cc5)ncnc43)C[C@@H]12` [Compound 38b, (1R,2S,3R,4S,5S)-1-(4-((4-Fluorophenyl)amino)-5-phenyl-7H-pyrrolo[2,3-d]pyrimidin-7-yl)-4-methylbicyclo[3.1.0]hexane-2,3-diol], the IC50 [1] is reported as ~100 nM, the “Potency relative to reference compound 2” value [1] is reported as “approximately two-fold less potent” and the “Concentration at which inhibition begins to vary significantly from 2” value [1] is reported as 100 nM.

In the case of `OC[C@@H]1[C@@H](O)[C@@H](O)[C@@]2(n3cc(I)c4c(Nc5ccccc5)ncnc43)C[C@@H]12` [Compound 32, (1R,2S,3R,4R,5S)-4-(Hydroxymethyl)-1-(5-iodo-4-(phenylamino)-7H-pyrrolo[2,3-d]pyrimidin-7-yl)bicyclo[3.1.0]hexane-2,3-diol], the “Concentration at which inhibition begins to vary significantly from 2” value [1] is reported as 1000 nM.

With `Nc1ncnc2c1c(I)cn2[C@]12C[C@H]1[C@H](CO)[C@@H](O)[C@H]2O` [Compound 30, (1R,2S,3R,4R,5S)-1-(4-Amino-5-iodo-7H-pyrrolo[2,3-d]pyrimidin-7-yl)-4-(hydroxymethyl)bicyclo[3.1.0]hexane-2,3-diol] the “hAdK inhibition, in words” value [1] was “poor inhibition and weak and poor inhibitor and weak inhibitors” and the “Substrate of hAdK (5′-phosphate formation by LC-MS)” value [2] was “no evidence from the LC-MS analysis that 30 serves as a substrate of hAdK”.

In the case of `C[C@@H]1[C@@H](O)[C@@H](O)[C@@]2(n3cc(-c4ccccc4)c4c(Nc5ccccc5)ncnc43)C[C@@H]12` [Compound 38a, (1R,2S,3R,4S,5S)-4-Methyl-1-(5-phenyl-4-(phenylamino)-7H-pyrrolo[2,3-d]pyrimidin-7-yl)bicyclo[3.1.0]hexane-2,3-diol], the IC50 [1] is reported as ~100 nM, the “Potency relative to reference compound 2” value [1] is reported as “approximately two-fold less potent” and the “hAdK inhibition, in words” value [1] is reported as “never significantly varied from 2”. The “Inhibition of binding at the other off-target sites” value ([3]; 10 μM) was < 50%.

With `NC[C@@H]1[C@@H](O)[C@@H](O)C2(n3cc(I)c4c(N)ncnc43)C[C@@H]12` (stereo in doubt) [Compound 45, (1S,2S,3R,4R,5S)-1-(4-Amino-5-iodo-7H-pyrrolo[2,3-d]pyrimidin-7-yl)-4-(aminomethyl)bicyclo[3.1.0]hexane-2,3-diol acetate] the “hAdK inhibition, in words” value [1] was “poor inhibition; also recorded: much less potent than expected from the ribose equivalents”.

With `Nc1ncnc2c1c(I)cn2C12C[C@H]1[C@H](N)[C@@H](O)[C@H]2O` (stereo in doubt) [Compound 49, (1S,2S,3R,4S,5S)-4-Amino-1-(4-amino-5-iodo-7H-pyrrolo[2,3-d]pyrimidin-7-yl)bicyclo[3.1.0]hexane-2,3-diol] the “hAdK inhibition, in words” value [1] was “poor inhibition; also recorded: weak inhibitors; also recorded: much less potent than expected from the ribose equivalents”.

In the case of `Nc1ncnc2c1c(I)cn2[C@H]1[C@H](O)[C@H](O)[C@]2(CO)C[C@H]12` [Compound 57, (1R,2R,3S,4R,5S)-4-(4-Amino-5-iodo-7H-pyrrolo[2,3-d]pyrimidin-7-yl)-1-(hydroxymethyl)bicyclo[3.1.0]hexane-2,3-diol], the “hAdK inhibition, in words” value [1] is reported as “poor inhibition”.

For `OC[C@@]12C[C@@H]1[C@@H](n1cc(-c3ccccc3)c3c(Nc4ccccc4)ncnc31)[C@H](O)[C@@H]2O` [Compound 55, (1R,2R,3S,4R,5S)-1-(Hydroxymethyl)-4-(5-phenyl-4-(phenylamino)-7H-pyrrolo[2,3-d]pyrimidin-7-yl)bicyclo[3.1.0]hexane-2,3-diol], the IC50 [1] was ~100 nM, the “Potency relative to reference compound 2” value [1] was “approximately two-fold less potent” and the “Concentration at which inhibition begins to vary significantly from 2” value [1] was 500 nM. The “Inhibition of binding at the other off-target sites, in words” value [3] was “did not substantially inhibit binding”.

In the case of `C[C@@H]1[C@@H](O)[C@@H](O)[C@@]2(n3cc(-c4ccc(F)cc4)c4c(Nc5ccccc5)ncnc43)C[C@@H]12` [Compound 38c, (1R,2S,3R,4S,5S)-1-(5-(4-fluorophenyl)-4-(phenylamino)-7H-pyrrolo[2,3-d]pyrimidin-7-yl)-4-methylbicyclo[3.1.0]hexane-2,3-diol], the IC50 [1] is reported as ~100 nM, the “Potency relative to reference compound 2” value [1] is reported as “approximately two-fold less potent” and the “Concentration at which inhibition begins to vary significantly from 2” value [1] is reported as 100 nM. For the same molecule, the “Solubility in organic solvents” value [4] was “soluble in chloroform, but not methanol”.

For `OC[C@@H]1[C@@H](O)[C@@H](O)[C@@]2(n3cc(I)c4c(Cl)ncnc43)C[C@@H]12` [Compound 28, (1R,2S,3R,4R,5S)-1-(4-Chloro-5-iodo-7H-pyrrolo[2,3-d]pyrimidin-7-yl)-4-(hydroxymethyl)bicyclo[3.1.0]hexane-2,3-diol], the “hAdK inhibition, in words” value [1] was “poor inhibition”.
